Data: ChEMBL document CHEMBL6109180, “De Novo-Designed APC/C Inhibitors Provide a Rationale for Targeting RING-Type E3 Ubiquitin Ligases” (J Med Chem, 2025)
Active and inactive are the calls of the source. The calls are words filed in the database; no cut-off is given here. Numbered stars: 1 amine (or outer) side, 2 acyl side, 3 side chain; on linkers, the order of the positions; unused ones are H or OH. Bridge positions count the residues as written; N and C are the ends. Square brackets hold non-standard residues; d marks the D form. Peptide text beside a SMILES is read from it. I, II: the chains in the order shown. X1 = O=C(O)CC[C@@H](C(=O)[*:2])N(CCOCCOCCOCCOCCOCCO[*:3])[*:1]; X2 = C[C@@](CCCCC=[*:3])(N[*:1])C(=O)[*:2]; R8 = C=CCCCCCC[C@@](C)(N)C(=O)O; S5 = C=CCCC[C@](C)(N)C(=O)O; Pra = C#CC[C@H](N)C(=O)O

Legend:
[1] = target: Anaphase-promoting complex subunit 11 (Homo sapiens) (UniProt Q9NYG5); assay: Binding affinity to APC11 (unknown origin) assessed as binding free energy
Sequence of Anaphase-promoting complex subunit 11 (Homo sapiens) (Q9NYG5 whole entry, one chain of several): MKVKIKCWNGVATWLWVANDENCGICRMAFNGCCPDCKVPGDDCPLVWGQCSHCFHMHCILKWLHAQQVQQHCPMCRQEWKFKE

[2] = system: HeLa; assay: (§1) Inhibition of recombinant APC/C/cdc20 (unknown origin) in metaphase-synchronized human HeLa cells co-expressing GST-tagged UBA1/UBE2C/methylated ubiquitin using RD680-labeled securin as substrate at 100 uM measured after 45 mins in presence of ATP by immuno-precipitation method; assay type: cell-based
[3] = system: HeLa; assay: Inhibition of recombinant APC/C/cdc20 (unknown origin) in metaphase-synchronized human HeLa cells co-expressing GST-tagged UBA1/UBE2D1/methylated ubiquitin using RD680-labeled securin as substrate at 100 uM measured after 45 mins in presence of ATP by immuno-precipitation method; assay type: cell-based
[4] = system: HeLa; assay: as §1, with “substrate assessed as maximum inhibition” for “substrate”, “15” for “45”; assay type: cell-based
[5] = system: HeLa; assay: Inhibition of recombinant APC/C/cdc20 (unknown origin) in metaphase-synchronized human HeLa cells co-expressing GST-tagged UBA1/UBE2C/methylated ubiquitin using cyclin B1 as substrate at 100 uM measured after 45 mins in presence of ATP by immuno-precipitation method
[6] = system: HeLa; assay: Inhibition of recombinant APC/C/cdc20 (unknown origin) in metaphase-synchronized human HeLa cells co-expressing GST-tagged UBA1/UBE2D1/methylated ubiquitin using cyclin B1 as substrate at 100 uM measured after 45 mins in presence of ATP by immuno-precipitation method
[7] = system: HeLa; assay: (§2) Inhibition of recombinant APC/C/cdc20 (unknown origin) in metaphase-synchronized human HeLa cells co-expressing GST-tagged UBA1/UBE2S/methylated ubiquitin using cyclin B1 as substrate at 100 uM measured after 45 mins in presence of ATP by immuno-precipitation method; assay type: cell-based
[8] = system: HeLa; assay: as §2, with “substrate assessed as decrease in UBE2S-driven chain elongation” for “substrate”; assay type: cell-based
[9] = target: T1, Ubiquitin-conjugating enzyme E2 C (Homo sapiens) (UniProt O00762); assay: Inhibition of UBE2C (unknown origin) auto-ubiquitination at 100 uM measured after 45 mins in presence of UBA1/His6-ubiquitin/ATP by SDS-PAGE analysis
T1 sequence (whole entry): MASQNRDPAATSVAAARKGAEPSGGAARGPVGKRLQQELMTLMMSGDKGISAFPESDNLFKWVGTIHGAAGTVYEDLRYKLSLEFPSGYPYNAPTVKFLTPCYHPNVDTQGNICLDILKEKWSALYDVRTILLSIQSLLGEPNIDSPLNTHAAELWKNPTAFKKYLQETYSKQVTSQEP

[10] = system: HeLa; assay: Inhibition of recombinant APC/C/cdc20 (unknown origin) in metaphase-synchronized human HeLa cells co-expressing GST-tagged UBA1/UBE2C/methylated ubiquitin using RD680-labeled securin as substrate at 25 uM measured after 45 mins in presence of ATP by immuno-precipitation method relative to control
[11] = Inhibition of recombinant APC/C/cdc20 (unknown origin) in metaphase-synchronized human HeLa cells co-expressing GST-tagged UBA1/UBE2C/methylated ubiquitin using RD680-labeled securin as substrate measured after 45 mins in presence of ATP by immuno-precipitation method
[12] = Non-competitve inhibition of recombinant APC/C/cdc20 (unknown origin) in metaphase-synchronized human HeLa cells co-expressing GST-tagged UBA1/UBE2C/methylated ubiquitin using RD680-labeled securin as substrate measured after 45 mins in presence of ATP by immuno-precipitation method; assay type: cell-based
[13] = species on record: Homo sapiens; assay: Potency index, ratio of Apcin IC50 to test compound IC50 for inhibition of APC/C (unknown origin)
[14] = system: TERT-RPE1; assay: Effect on time length of mitosis in human RPE-1 cells at 50 uM measured for 10 to 24 hrs by bright field microscopy; assay type: functional, cell-based; details: time 10-24 hrs
[15] = Drug localization in human HeLa cells assessed as punctate pattern formation at 50 uM incubated for 10 hrs by AF488 dye based analysis; assay type: ADME, cell-based
[16] = target: Anaphase-promoting complex subunit 11 (Homo sapiens) (UniProt Q9NYG5); assay: Binding affinity to APC11 in asynchronously growing human HeLa cells incubated for 30 mins by pull down assay; assay type: cell-based
[17] = target: E3 ubiquitin-protein ligase Mdm2 (Homo sapiens) (UniProt Q00987); assay: Binding affinity to MDM2 in asynchronously growing human HeLa cells incubated for 30 mins by pull down assay; assay type: cell-based
Sequence of E3 ubiquitin-protein ligase Mdm2 (Homo sapiens) (Q00987 whole entry, looked up): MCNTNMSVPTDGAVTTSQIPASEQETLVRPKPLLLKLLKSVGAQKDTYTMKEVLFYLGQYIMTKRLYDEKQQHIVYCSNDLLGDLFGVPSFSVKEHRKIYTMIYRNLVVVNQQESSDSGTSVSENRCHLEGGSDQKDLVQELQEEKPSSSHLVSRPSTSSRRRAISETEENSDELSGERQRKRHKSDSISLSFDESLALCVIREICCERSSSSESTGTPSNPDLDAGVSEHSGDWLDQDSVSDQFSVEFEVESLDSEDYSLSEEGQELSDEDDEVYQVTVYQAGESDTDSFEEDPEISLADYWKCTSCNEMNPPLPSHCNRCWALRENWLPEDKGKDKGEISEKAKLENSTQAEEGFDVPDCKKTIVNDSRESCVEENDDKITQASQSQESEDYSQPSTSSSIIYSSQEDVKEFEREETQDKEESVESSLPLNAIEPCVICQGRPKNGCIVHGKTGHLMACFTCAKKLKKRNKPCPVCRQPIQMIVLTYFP

[18] = target: E3 ubiquitin-protein ligase CBL (Homo sapiens) (UniProt P22681); assay: Binding affinity to c-CBL in asynchronously growing human HeLa cells incubated for 30 mins by pull down assay; assay type: cell-based
[19] = target: E3 ubiquitin-protein ligase RBX1 (Homo sapiens) (UniProt P62877); assay: Binding affinity to RBX1 in asynchronously growing human HeLa cells incubated for 30 mins by pull down assay; assay type: cell-based
Sequence of E3 ubiquitin-protein ligase RBX1 (Homo sapiens) (P62877 whole entry, looked up): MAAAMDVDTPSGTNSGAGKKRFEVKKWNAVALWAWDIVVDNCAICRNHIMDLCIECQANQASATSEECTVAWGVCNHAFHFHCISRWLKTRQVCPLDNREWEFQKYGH

[20] = target: Breast cancer type 1 susceptibility protein (Homo sapiens) (UniProt P38398); assay: Binding affinity to BRCA1 in asynchronously growing human HeLa cells incubated for 30 mins by pull down assay; assay type: cell-based
Sequence of Breast cancer type 1 susceptibility protein (Homo sapiens) (P38398 whole entry, looked up): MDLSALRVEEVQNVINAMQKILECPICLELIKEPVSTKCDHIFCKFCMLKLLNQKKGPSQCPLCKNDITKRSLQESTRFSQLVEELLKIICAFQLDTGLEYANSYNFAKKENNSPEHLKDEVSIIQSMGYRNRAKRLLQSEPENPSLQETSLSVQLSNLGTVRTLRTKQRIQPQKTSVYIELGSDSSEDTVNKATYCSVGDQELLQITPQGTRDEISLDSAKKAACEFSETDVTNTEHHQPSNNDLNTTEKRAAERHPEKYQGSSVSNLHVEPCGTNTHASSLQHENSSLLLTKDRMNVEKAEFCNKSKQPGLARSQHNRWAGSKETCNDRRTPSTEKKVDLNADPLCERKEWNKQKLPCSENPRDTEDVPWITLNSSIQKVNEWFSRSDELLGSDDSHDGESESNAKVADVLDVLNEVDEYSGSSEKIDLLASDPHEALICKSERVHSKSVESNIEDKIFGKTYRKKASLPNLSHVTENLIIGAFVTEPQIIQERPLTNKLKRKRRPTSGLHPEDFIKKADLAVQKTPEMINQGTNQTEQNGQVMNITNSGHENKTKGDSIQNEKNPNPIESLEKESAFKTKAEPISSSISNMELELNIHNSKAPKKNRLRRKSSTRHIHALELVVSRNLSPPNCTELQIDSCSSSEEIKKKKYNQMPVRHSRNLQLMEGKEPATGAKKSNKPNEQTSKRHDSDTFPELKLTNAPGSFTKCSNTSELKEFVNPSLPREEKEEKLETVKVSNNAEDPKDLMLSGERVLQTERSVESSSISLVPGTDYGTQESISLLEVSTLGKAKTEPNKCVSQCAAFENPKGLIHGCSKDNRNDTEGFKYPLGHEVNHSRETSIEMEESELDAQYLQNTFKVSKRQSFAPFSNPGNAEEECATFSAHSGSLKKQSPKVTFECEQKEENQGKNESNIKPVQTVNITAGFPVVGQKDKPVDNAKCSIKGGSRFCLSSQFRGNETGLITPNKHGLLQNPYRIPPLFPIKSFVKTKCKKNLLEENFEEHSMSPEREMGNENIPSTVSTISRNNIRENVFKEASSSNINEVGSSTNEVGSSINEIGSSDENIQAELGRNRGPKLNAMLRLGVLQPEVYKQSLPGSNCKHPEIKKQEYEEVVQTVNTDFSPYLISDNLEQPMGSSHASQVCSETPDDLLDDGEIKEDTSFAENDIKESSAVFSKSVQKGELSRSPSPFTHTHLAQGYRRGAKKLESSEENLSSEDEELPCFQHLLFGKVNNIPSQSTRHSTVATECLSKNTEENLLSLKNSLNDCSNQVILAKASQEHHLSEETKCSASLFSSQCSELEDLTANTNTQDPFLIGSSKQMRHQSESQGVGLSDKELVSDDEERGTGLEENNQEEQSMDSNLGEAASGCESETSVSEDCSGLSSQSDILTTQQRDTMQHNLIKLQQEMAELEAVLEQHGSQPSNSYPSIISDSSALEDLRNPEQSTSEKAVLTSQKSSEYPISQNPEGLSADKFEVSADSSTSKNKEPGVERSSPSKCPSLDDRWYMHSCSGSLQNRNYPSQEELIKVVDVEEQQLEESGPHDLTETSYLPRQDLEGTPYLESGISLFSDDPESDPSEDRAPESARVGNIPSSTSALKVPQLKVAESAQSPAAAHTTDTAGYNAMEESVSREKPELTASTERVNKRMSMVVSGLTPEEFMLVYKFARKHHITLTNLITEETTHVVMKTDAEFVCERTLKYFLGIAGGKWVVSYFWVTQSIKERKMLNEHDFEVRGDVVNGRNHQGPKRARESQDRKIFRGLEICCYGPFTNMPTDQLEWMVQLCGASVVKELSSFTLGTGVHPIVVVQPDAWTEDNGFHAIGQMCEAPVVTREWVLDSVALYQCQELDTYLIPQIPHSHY

[21] = target: T2, Polycomb complex protein BMI-1 (Homo sapiens) (UniProt P35226); assay: Binding affinity to BMI1 in asynchronously growing human HeLa cells incubated for 30 mins by pull down assay; assay type: cell-based
T2 sequence (whole entry): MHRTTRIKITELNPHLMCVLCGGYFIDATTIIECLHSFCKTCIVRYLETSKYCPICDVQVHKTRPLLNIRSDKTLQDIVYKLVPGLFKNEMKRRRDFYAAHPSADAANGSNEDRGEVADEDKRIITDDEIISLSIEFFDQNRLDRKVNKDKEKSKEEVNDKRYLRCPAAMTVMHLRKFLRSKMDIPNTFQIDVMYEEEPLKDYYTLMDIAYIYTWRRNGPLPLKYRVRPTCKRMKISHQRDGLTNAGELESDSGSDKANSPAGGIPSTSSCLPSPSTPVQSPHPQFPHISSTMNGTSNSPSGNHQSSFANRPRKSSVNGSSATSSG

[22] = target: Baculoviral IAP repeat-containing protein 2 (Homo sapiens) (UniProt Q13490); assay: Binding affinity to c-IAP1 in asynchronously growing human HeLa cells incubated for 30 mins by pull down assay; assay type: cell-based
Sequence of Baculoviral IAP repeat-containing protein 2 (Homo sapiens) (Q13490 whole entry): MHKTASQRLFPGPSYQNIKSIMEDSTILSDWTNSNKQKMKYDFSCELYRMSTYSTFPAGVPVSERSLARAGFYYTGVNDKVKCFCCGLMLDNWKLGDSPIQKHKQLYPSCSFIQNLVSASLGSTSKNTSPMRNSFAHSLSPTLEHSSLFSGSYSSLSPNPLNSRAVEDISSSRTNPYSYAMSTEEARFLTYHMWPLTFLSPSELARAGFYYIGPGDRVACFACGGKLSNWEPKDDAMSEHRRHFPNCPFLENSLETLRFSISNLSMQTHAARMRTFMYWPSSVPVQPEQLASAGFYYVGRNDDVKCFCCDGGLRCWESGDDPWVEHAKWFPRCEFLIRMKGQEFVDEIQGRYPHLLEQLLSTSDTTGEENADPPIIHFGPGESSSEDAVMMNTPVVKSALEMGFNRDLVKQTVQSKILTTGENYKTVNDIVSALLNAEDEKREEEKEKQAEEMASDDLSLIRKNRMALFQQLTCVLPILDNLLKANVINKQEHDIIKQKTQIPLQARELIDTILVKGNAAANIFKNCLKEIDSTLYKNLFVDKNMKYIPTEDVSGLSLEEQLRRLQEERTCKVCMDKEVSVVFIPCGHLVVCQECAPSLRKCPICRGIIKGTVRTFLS

[23] = Drug localization in cytoplasm of human HeLa cells at 50 uM incubated for 10 hrs by AF488 dye based analysis; assay type: ADME, subcellular
[24] = Drug localization in nucleoplasm of human HeLa cells at 50 uM incubated for 10 hrs by AF488 dye based analysis; assay type: ADME, subcellular
[25] = Drug localization in nucleus of human HeLa cells at 50 uM incubated for 4 to 10 hrs by AF488 dye based analysis; assay type: ADME, subcellular; details: time 4-10 hrs
[26] = system: HeLa; assay: Induction of mitosis prolongation in human HeLa cells assessed as time taken at 50 uM measured for 10 to 48 hrs by live cell imaging analysis; assay type: functional; details: time 10-48 hrs
[27] = system: HeLa; assay: Binding affinity to APC2 in asynchronous human HeLa cells incubated for 2 hrs by pull down assay; assay type: cell-based
[28] = target: Anaphase-promoting complex subunit 11 (Homo sapiens) (UniProt Q9NYG5); assay: Binding affinity to APC11 in asynchronous human HeLa cells incubated for 2 hrs by pull down assay; assay type: cell-based

CC(=O)N[C@@H](CCCNC(=N)N)C(=O)N[C@H]1CSSC[C@@H](C(=O)N[C@@H](CCCNC(=N)N)C(N)=O)NC(=O)[C@H](Cc2c[nH]c3ccccc23)NC(=O)[C@H](Cc2ccccc2)NC(=O)[C@H]([C@@H](C)O)NC(=O)[C@H](CCCNC(=N)N)NC(=O)[C@@H]2CCCN2C(=O)CNC(=O)[C@H](Cc2c[nH]c3ccccc23)NC(=O)[C@H](Cc2cnc[nH]2)NC1=O (Ac-RCHWGPRTFWCR-NH2; disulfide 2-11)
deltaG [1]: -25.6 kcal/mol
inhibition [2]: Active
inhibition [3]: Active
inhibition [4]: Active

CC[C@H](C)[C@@H]1NC(=O)[C@H](CCC(=O)O)NC(=O)[C@H](CCCCN)NC(=O)[C@H]([C@@H](C)CC)NC(=O)[C@](C)(NC(=O)[C@H](Cc2c[nH]c3ccccc23)NC(=O)[C@H](Cc2c[nH]c3ccccc23)NC(=O)[C@H](CCC(=O)O)NC(C)=O)CCCCCC/C=C\CCC[C@@](C)(C(=O)N[C@@H](CCCNC(=N)N)C(=O)N[C@@H](CCCNC(=N)N)C(=O)N[C@@H](C)C(N)=O)NC(=O)[C@H](CCCNC(=N)N)NC(=O)[C@H](CCC(N)=O)NC1=O (Ac-EWW[R8]IKEIQR[S5]RRA-NH2; staple (Z) 4-11)
inhibition [2]: Active; Compound Exerted Better Inhibitory Effect Than Tame
inhibition [5]: Active
inhibition [6]: Active
inhibition [7]: Active
inhibition [8]: 100%
inhibition [9]: inactive
inhibition [10]: > 80%
IC50 [11]: 1.96 µM
Ki [12]: 5.03 µM
Ratio IC50 [13]: 4.5
Activity [14]: No effect

C#CC[C@H](NC(=O)[C@H](Cc1c[nH]c2ccccc12)NC(=O)[C@H](CCC(=O)O)NC(C)=O)C(=O)N[C@]1(C)CCCCCC/C=C\CCCC[C@@](C)(C(=O)N[C@@H](CCCNC(=N)N)C(=O)N[C@@H](CCCNC(=N)N)C(=O)N[C@@H](C)C(N)=O)NC(=O)[C@H](CCCNC(=N)N)NC(=O)[C@H](CCC(N)=O)NC(=O)[C@H]([C@@H](C)CC)NC(=O)[C@H](CCC(=O)O)NC(=O)[C@H](CCCCN)NC(=O)[C@H]([C@@H](C)CC)NC1=O (Ac-EW[Pra][R8]IKEIQR[X2]RRA-NH2; staple (Z) 4-11)
Drug uptake [15]: Active

C#CC[C@H](NC(=O)[C@@H]1CCCN1C(=O)[C@H](Cc1c[nH]c2ccccc12)NC(=O)[C@H](CCCNC(=N)N)NC(C)=O)C(=O)N[C@@]1(C)CCC/C=C/CCC[C@@](C)(C(=O)N[C@@H](CCC(N)=O)C(=O)N[C@H](C(=O)N[C@@H](CCCNC(=N)N)C(=O)N[C@@H](CCCNC(=N)N)C(=O)N[C@@H](Cc2c[nH]c3ccccc23)C(N)=O)C(C)C)NC(=O)[C@H](CC(=O)O)NC(=O)[C@H](Cc2c[nH]c3ccccc23)NC(=O)[C@H](CCCCN)NC1=O (Ac-RWP[Pra][S5]KWD[S5]QVRRW-NH2; staple (E) 5-9)
Activity [16]: Active
Activity [17]: inactive
Activity [18]: inactive
Activity [14]: No effect
Drug uptake [15]: Active

C#CC[C@H](NC(C)=O)C(=O)N[C@@H](CCCNC(=N)N)C(=O)N[C@H]1CSSC[C@@H](C(=O)N[C@@H](CCCNC(=N)N)C(N)=O)NC(=O)[C@H](Cc2c[nH]c3ccccc23)NC(=O)[C@H](Cc2ccccc2)NC(=O)[C@H]([C@@H](C)O)NC(=O)[C@H](CCCNC(=N)N)NC(=O)[C@@H]2CCCN2C(=O)CNC(=O)[C@H](Cc2c[nH]c3ccccc23)NC(=O)[C@H](Cc2cnc[nH]2)NC1=O (Ac-[Pra]RCHWGPRTFWCR-NH2; disulfide 3-12)
Activity [16]: Active
Activity [19]: inactive
Activity [20]: inactive
Activity [21]: inactive
Activity [17]: Active
Activity [18]: Active
Activity [22]: inactive

C#CC[C@H](NC(=O)[C@H](Cc1c[nH]c2ccccc12)NC(=O)[C@H](CCC(=O)O)NCCOCCOCCOCCOCCOCCOC(=O)CNC(=O)[C@H](Cc1ccccc1)NC(=O)[C@H](Cc1c[nH]c2ccccc12)NC(=O)[C@H](Cc1ccccc1)NC(=O)CNC(C)=O)C(=O)N[C@]1(C)CCCCCC/C=C\CCC[C@@](C)(C(=O)N[C@@H](CCCNC(=N)N)C(=O)N[C@@H](CCCNC(=N)N)C(=O)N[C@@H](C)C(N)=O)NC(=O)[C@H](CCCNC(=N)N)NC(=O)[C@H](CCC(N)=O)NC(=O)[C@H]([C@@H](C)CC)NC(=O)[C@H](CCC(=O)O)NC(=O)[C@H](CCCCN)NC(=O)[C@H]([C@@H](C)CC)NC1=O (I: H-[X1]W[Pra][R8]IKEIQR[S5]RRA-NH2 / II: Ac-GFWFG; ester I:1-II:C; staple (Z) I:4-I:11)
Drug uptake [23]: Active
Drug uptake [24]: Active
Drug uptake [25]: Active
Time [26]: ~74 min
Activity [27]: inactive
Activity [28]: inactive
